Measurements taken from ChEMBL document CHEMBL1151830, “Cottoquinazoline A and cotteslosins A and B, metabolites from an Australian marine-derived strain of Aspergillus versicolor” (J Nat Prod, 2009).
Converted amounts (≈) assume the structure as drawn. Non-standard residues stand in square brackets, D forms with d. Residues, ends and D or L forms follow the SMILES beside them. NMeY = CN[C@@H](Cc1ccc(O)cc1)C(=O)O

What was measured:
Assay type in all cases: functional, cell-based
T47D = test: Cytotoxicity against human T47D cells
DU-145 = test: Cytotoxicity against human DU145 cells
[1] = Cytotoxicity against human MM418c5 cells

## CC[C@H](C)[C@@H]1NC(=O)[C@H](C(C)C)NC(=O)[C@@H]2CCCN2C(=O)[C@H](Cc2ccc(O)cc2)NC(=O)[C@H](Cc2ccc(O)cc2)N(C)C1=O [COTTESLOSIN A] (cyclo(I[NMeY]YPV))
T47D
  EC50: 94 µg/mL (≈ 145 µM)
DU-145
  EC50: 90 µg/mL (≈ 139 µM)
[1]
  EC50: 66 µg/mL (≈ 102 µM)
